Several values for one entry are separate records, joined by “and”; a condition that tells them apart may be missing. Equal values may be shown once. Entries after “also recorded” stand apart in the source; their conditions may differ. Where a SMILES comes first, the peptide text is derived from it. [ ]: non-standard residue; d: D form. pY = N[C@@H](Cc1ccc(OP(=O)(O)O)cc1)C(=O)O
How the values were obtained:
DDR2 = target: T1, DDR2 (Homo sapiens, UniProt Q16832); assay: DDR2 tyrosine phosphorylation in transfected 293 cells (anti-phosphotyrosine Western blot); assay type: cell-based; conditions: 90 min; for ligand activity: induction of DDR2 tyrosine phosphorylation: soluble agent added to medium of transfected 293 cells, 10 μg/ml
T1 construct: expressed in transfected cells; host or cells: 293 cells, CMV-based expression vector
T1 sequence (Q16832 22-855): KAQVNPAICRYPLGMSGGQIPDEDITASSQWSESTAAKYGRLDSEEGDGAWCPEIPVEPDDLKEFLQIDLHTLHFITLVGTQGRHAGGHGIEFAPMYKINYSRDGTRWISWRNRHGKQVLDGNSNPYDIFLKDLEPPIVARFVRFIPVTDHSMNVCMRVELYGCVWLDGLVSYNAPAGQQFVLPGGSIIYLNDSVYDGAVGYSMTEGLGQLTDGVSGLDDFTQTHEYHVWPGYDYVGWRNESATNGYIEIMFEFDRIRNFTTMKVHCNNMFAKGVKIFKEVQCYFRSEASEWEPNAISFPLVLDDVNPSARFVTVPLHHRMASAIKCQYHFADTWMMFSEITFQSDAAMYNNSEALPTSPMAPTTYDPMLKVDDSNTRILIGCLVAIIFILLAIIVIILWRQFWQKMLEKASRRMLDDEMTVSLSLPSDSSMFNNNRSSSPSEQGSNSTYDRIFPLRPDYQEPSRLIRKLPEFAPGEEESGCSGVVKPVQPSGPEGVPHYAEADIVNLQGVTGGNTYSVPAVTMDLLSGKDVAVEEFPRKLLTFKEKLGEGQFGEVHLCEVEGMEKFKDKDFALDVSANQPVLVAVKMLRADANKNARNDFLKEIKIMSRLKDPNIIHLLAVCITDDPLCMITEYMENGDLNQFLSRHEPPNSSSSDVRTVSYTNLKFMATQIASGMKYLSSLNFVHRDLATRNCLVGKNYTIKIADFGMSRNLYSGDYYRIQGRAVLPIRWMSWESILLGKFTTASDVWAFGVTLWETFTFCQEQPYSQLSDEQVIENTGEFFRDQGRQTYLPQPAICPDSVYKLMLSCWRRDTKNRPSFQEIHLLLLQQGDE
Method: (§1) Semiconfluent 293 cells were transfected by calcium-phosphate precipitation with a cytomegalovirus-based expression vector. Sixteen hours later, cells were transferred to serum-free media for another 24 h. Cells were stimulated with 10 μg/ml collagen for 90 min and lysed with 1% Triton-X 100, 50 mM HEPES (pH 7.5), 150 mM NaCl, 1.5 mM MgCl2, 5 mM EGTA, 5 mM EDTA, 10% glycerol, 10 mM NaF, 1 mM phenylmethylsulfonyl fluoride (PMSF), 1 mM Na-orthovanadate, 10 μg/ml aprotinin. The cellular lysates were centrifuged 10 min at 4° C. and 13,000 rpm and aliquots of the supernatant were subjected to SDS-PAGE or further analyzed by immunoprecipitation with specific antibodies for 3 h at 4° C. on a rotating wheel. The immunocomplex was washed three times with 20 mM HEPES (pH 7.5), 150 mM NaCl, 0.1% Triton, 10% glycerol and analyzed by SDS-PAGE. Proteins were transferred to nitrocellulose membrane (Schleicher & Schuell) and immunoblotted with antibodies diluted 1:500 in 50 mM Tris (pH 7.5), 150 mM NaCl, 5 mM EDTA, 0.05% gelatin overnight. Western blots were developed using horseradish peroxidase-coupled secondary antibody (Biorad) and enhanced chemiluminescence (Amersham). For reprobing, the membrane was stripped in 70 mM Tris (pH 6.8), 2% SDS, 0.1% P-mercaptoethanol at 55° C. for 30 min. For in vitro kinase assays, immunoprecipitates were washed twice with in 40 mM HEPES (pH 7.5), 20 mM MgCl2, 2 mM MnCl2, 100 μM orthovanadate, 5 μM dATP and incubated with 5 μCi [γ-^32P] ATP at 30° C. for 20 min. The products of the kinase reaction were monitored by SDS-PAGE and autoradiography.

DDR1 = target: T2, DDR1 (Homo sapiens, UniProt Q08345); assay: DDR1 tyrosine phosphorylation in transfected 293 cells (anti-phosphotyrosine Western blot); assay type: cell-based; conditions: 90 min; for ligand activity: induction of DDR1 (DDR1b) tyrosine phosphorylation: soluble agent added to medium of transfected 293 cells, 10 μg/ml
T2 construct: expressed in transfected cells; host or cells: human embryonic kidney 293 cells, CMV-based expression vector
Method: as §1
To identify possible sources for the ligand of DDR1, an in vivo screening system was established. Human embryonic kidney fibroblast 293 cells were transiently transfected with expression plasmids coding for DDR1b. Growth-arrested cells were then stimulated with various agents and monitored for receptor activation by anti-phosphotyrosine Western blotting of total cellular lysates. […] The increase of DDR1b autophosphorylation was dependent on the concentration of matrigel added to the cells (FIG. 7A).

DDR1b = target: T3, DDR1b (Homo sapiens, UniProt Q08345); assay: Tyrosine phosphorylation of endogenous DDR1b in carcinoma cells (T-47D; A431), immunoprecipitation and anti-phosphotyrosine blot; assay type: cell-based; conditions: T-47D, 90 min; collagens/gelatin 10 μg/ml, orthovanadate 1 mM
T3 construct: endogenous in cells; host or cells: T-47D human mammary carcinoma cells (A431 also named)
From the text: To investigate the effects of collagen on cells that express endogenous DDR tyrosine kinases, the mammary carcinoma cell line T-47D was employed. Previous results have shown that DDR1 is highly expressed in human carcinoma cell lines, in particular, the breast cancer cell lines BT-20, MDA-MB-175 and T-47D (1) (Perez et al., 1996). […] The time course of endogenous DDR1b tyrosine phosphorylation in T-47D cells was even slower than in 293 cells, with maximal activation being achieved only after stimulation for 18 hours.
To further investigate the role of different types of collagen in the activation of DDR1 and DDR2, collagen types I, II, III and V purified from human placenta and collagen type II from bovine tracheal cartilage were obtained. To test their ability to induce receptor tyrosine phosphorylation, 293 cells overexpressing DDR1 or DDR2 were employed. […] The various types of collagen were also tested for their ability to stimulate tyrosine phosphorylation of endogenous DDR1b present in T-47D cells. For this purpose, DDR1b was immunoprecipitated from lysates of stimulated T-47D cells and analyzed by Western blotting with anti-phosphotyrosine antibodies. […] As previously shown, DDR1 tyrosine phosphorylation could also be activated by treating cells with 1 mM orthovanadate, an inhibitor of tyrosine phosphatases. Furthermore, gelatin which contains heat denatured collagen was tested for its capacity to induce DDR1b tyrosine phosphorylation.
Integrins of the type α1β1 and α2β1 have long been known to be receptors for collagen. Therefore, tests were conducted to determine if these integrins are somehow involved in the activation of DDR1b. The mammary carcinoma cell line T-47D, which endogenously expresses the b-isoform of DDR1, was used. Monoclonal antibodies directed against the extracellular domains of integrins can block binding to collagen and therefore signaling of integrins. T-47D cells were treated with antibody A2-IIE10 against α2-integrin and antibody DE9 against β1-integrin (both from Upstate Biotechnology) in the absence or presence of 10 μg/ml collagen type I overnight. DDR1b or Shc were immunoprecipitated from cellular lysates and analyzed by Western blotting with antiphosphotyrosine antibody.
DDR1b and DDR2 were transfected into 293 cells and were stimulated with 10 µg/ml mouse collagen type I for different periods of time. (FIG. 9A and FIG. 9B) Total cellular lysates were probed with antiphosphotyrosine antibody. Maximal activation is seen 90 min after stimulation of DDR1b (FIG. 9A) and DDR2 (FIG. 9B). (FIG. 9C) Human mammary carcinoma T-47D cells were cultivated on 10 cm dishes to confluence and starved in 0.5% serum overnight. Cells were stimulated with collagen type I for various periods of time and lysed. DDR1b was immunoprecipitated from the lysates and analyzed by Western blotting with antiphosphotyrosine antibody. Maximal phosphorylation of DDR1b is seen after stimulation for 18 h. An unidentified, tyrosine phosphorylated protein with an apparent molecular weight of 115 kDa is copurified in the immunoprecipitations. […] Prolonged stimulation with collagen increases the processing of DDR1b in T-47D cells, indicated by an additional 62 kDa band. (FIGS. 9E and 9F) DDR1b was immunoprecipitated from overexpressing 293 cells (E) and T-47D (FIG. 9F) cells and subjected to an in vitro kinase reaction. The incorporation of [^32P]-phosphate is monitored by SDS-PAGE followed by autoradiograpy.

DDR receptors = assay: Effect of other agents on DDR activity / collagen-induced DDR tyrosine phosphorylation; assay type: cell-based; conditions: for effect on DDR activity: collagen-associated molecules
Shc PTB domain = target: T4, Shc PTB domain (Homo sapiens, UniProt P29353); assay: Surface plasmon resonance competition: GST-Shc PTB domain binding to immobilized middle T antigen phosphopeptide; conditions: IC50, inhibition of binding of the Shc PTB domain to the middle T antigen phosphopeptide, BIAcore, soluble competing phosphopeptide
T4 construct: the PTB domain fusion construct comprises amino acids 1-225 of human p52 Shc; made in house; host or cells: E. coli
T4 sequence (P29353 1-225 isoform P29353-2): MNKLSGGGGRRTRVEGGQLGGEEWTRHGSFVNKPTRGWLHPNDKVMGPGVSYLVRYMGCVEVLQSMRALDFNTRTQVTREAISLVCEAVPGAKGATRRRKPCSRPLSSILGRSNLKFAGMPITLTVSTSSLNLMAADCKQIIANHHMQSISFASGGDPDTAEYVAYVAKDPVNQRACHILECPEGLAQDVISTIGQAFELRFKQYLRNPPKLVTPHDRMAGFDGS
Method: Surface plasmon resonance—experiments were done with a BIAcore instrument (Pharmacia). A phosphopeptide corresponding to the NPXY sequence in the polyomavirus middle T antigen (mT) (LSLLSNPTpYSVNSK) was absorbed to the surface of a biosensor chip. Binding of soluble GST-Shc PTB domain fusion protein to the mT peptide was measured in the presence or absence of competing soluble phosphopeptides based on the sequences around Tyr 513 of DDR1b or Tyr 490 of the NGFR (HIIENPQpYFSD) (21).
Experiments were done with a BIAcore instrument (Pharmacia). A phosphopeptide corresponding to the NPXY sequence in the polyomavirus middle T antigen (LSLLSNPTpYSVMRSK) was absorbed to the surface of a biosensor chip. Binding of soluble GST-Shc PTB domain fusion protein to the middle T peptide was measured in presence or absence of competing soluble phosphopeptides based on the sequences around tyrosine 513 of DDR1b (ALLLSNPApYRLLLA) or tyrosine 490 of the NGF receptor (HIIENPQpYFSD).

[1] = transfected 293 cells plated on collagen-coated dishes

T3 sequence (Q08345 19-913): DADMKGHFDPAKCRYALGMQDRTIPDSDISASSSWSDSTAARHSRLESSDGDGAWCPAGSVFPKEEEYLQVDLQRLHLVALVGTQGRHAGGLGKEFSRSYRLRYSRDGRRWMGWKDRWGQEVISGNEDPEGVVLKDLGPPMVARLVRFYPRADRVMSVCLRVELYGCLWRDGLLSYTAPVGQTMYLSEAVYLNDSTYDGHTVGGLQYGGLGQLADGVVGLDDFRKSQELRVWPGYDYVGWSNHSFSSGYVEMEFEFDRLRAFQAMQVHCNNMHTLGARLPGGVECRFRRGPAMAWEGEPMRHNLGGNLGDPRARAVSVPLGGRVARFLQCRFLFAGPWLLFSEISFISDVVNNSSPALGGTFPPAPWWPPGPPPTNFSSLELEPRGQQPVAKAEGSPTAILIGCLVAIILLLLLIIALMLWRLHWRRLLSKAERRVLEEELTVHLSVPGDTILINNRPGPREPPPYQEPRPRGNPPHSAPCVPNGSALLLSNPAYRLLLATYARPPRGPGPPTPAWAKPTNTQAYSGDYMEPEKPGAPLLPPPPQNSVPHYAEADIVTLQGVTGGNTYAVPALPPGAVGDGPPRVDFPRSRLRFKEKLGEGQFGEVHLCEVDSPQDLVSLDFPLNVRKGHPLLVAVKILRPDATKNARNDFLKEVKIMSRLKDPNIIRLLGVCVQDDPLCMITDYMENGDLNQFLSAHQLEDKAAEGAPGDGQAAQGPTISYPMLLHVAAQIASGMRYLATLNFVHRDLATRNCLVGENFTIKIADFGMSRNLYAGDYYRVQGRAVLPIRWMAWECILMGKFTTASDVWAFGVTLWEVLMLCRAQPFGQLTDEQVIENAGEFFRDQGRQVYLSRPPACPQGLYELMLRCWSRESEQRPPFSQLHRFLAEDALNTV
T2 sequence (Q08345 19-913): as above

Compound: collagen type III: collagen type III purified from human placenta
- ligand activity: induction of DDR2 tyrosine phosphorylation (DDR2): highly potent ligands; also recorded: highly activated
- DDR2 tyrosine phosphorylation on immobilized collagen (DDR2; [1]): triggered
- ligand activity: induction of DDR1 (DDR1b) tyrosine phosphorylation (DDR1): equally good ligands
- DDR1b tyrosine phosphorylation on immobilized collagen (DDR1; [1]): further increased
- tyrosine phosphorylation of endogenous DDR1b in T-47D cells (DDR1b): lower, but still detectable

Compound: gelatin
- tyrosine phosphorylation of endogenous DDR1b in T-47D cells (DDR1b): did not induce an increase

Compound: laminin
- ligand activity: induction of DDR1 (DDR1b) tyrosine phosphorylation (DDR1): neither

Compound: heparin
- effect on DDR activity (DDR receptors): no effect

Compound: fibronectin
- ligand activity: induction of DDR1 (DDR1b) tyrosine phosphorylation (DDR1): neither

Compound: collagen type II: collagen type II from bovine tracheal cartilage
- ligand activity: induction of DDR2 tyrosine phosphorylation (DDR2): moderate activity
- tyrosine phosphorylation of endogenous DDR1b in T-47D cells (DDR1b): lower, but still detectable

Compound: chondroitin-sulphate A
- effect on DDR activity (DDR receptors): no effect

Compound: CC[C@H](C)[C@H](NC(=O)[C@@H](NC(=O)[C@@H](N)Cc1c[nH]cn1)[C@@H](C)CC)C(=O)N[C@@H](CCC(=O)O)C(=O)N[C@@H](CC(N)=O)C(=O)N1CCC[C@H]1C(=O)N[C@@H](CCC(N)=O)C(=O)N[C@@H](Cc1ccc(OP(=O)(O)O)cc1)C(=O)N[C@@H](Cc1ccccc1)C(=O)N[C@@H](CO)C(=O)N[C@@H](CC(=O)O)C(=O)O [NGF receptor phosphopeptide, HIIENPQpYFSD] (H-HIIENPQ[pY]FSD-OH; N-terminus and C-terminus assumed)
- IC50 (Shc PTB domain): ~100 nM and 70 nM

Compound: [O]=[V]([O-])([O-])[O-] [orthovanadate, reference compound]
- tyrosine phosphorylation of endogenous DDR1b in T-47D cells (DDR1b): activated

Compound: C[C@@H]1C[C@@H]([C@H](O)CC2CC(=O)NC(=O)C2)C(=O)[C@@H](C)C1 [cycloheximide, reference compound]
- effect on ability of collagen to induce DDR tyrosine phosphorylation (DDR receptors; treatment of cells, data not shown): not inhibited
